The results in this text go back to publication PMC3848040 (Science (New York, N.Y.), 2013).

One assay addresses T1, GTDC2dTM (Homo sapiens, UniProt Q8NAT1).
T1 sequence (Q8NAT1 26-580 limits assumed): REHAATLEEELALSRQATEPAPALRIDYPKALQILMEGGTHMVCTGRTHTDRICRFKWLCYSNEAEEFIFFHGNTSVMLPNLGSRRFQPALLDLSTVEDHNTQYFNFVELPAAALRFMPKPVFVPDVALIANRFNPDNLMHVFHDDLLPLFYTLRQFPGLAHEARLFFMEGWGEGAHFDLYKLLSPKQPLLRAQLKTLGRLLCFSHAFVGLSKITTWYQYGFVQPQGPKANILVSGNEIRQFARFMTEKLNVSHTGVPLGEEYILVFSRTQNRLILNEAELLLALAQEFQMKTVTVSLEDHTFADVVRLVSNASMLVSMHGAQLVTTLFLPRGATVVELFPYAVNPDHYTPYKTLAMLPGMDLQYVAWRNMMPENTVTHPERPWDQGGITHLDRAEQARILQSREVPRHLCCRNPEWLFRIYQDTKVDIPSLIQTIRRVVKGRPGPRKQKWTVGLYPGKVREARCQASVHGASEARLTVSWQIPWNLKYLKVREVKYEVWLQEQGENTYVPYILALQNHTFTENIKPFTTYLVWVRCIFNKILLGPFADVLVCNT
Description: glycosyl transfer, gel filtration and NMR of product. Format: biochemical. Background: Size exclusion chromatography separates by hydrodynamic size, large species first.

The target in the next assay is T2, B3GALNT2dTM (Homo sapiens, UniProt Q8NCR0).
T2 sequence (Q8NCR0 24-500 limits assumed): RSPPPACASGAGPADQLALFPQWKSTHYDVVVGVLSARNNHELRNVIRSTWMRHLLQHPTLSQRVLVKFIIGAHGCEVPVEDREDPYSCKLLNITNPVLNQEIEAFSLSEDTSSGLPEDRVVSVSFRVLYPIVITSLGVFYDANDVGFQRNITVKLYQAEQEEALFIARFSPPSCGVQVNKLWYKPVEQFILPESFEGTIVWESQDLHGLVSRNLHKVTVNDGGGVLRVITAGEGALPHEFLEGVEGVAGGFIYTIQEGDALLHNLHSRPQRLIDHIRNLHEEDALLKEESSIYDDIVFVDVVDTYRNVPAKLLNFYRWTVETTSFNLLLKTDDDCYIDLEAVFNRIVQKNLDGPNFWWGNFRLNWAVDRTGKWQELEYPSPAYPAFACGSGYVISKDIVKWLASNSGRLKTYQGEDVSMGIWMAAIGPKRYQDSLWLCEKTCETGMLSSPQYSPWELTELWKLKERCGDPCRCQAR
Description: glycosyl transfer, MALDI-TOF/MS. Format: biochemical. To be noted: donor; acceptor GlcNAc-β4-Man-O-peptide.

Regarding `Cc1cc(=O)oc2cc(O[C@H]3O[C@H](CO)[C@@H](O)[C@H](O)[C@@H]3O)ccc12` [Man-α-MU, 4-methylumbelliferyl-α-D-mannoside], the “glycosyl transfer, gel filtration and NMR of product” value at GTDC2dTM (acceptor, donor UDP-GlcNAc) is recorded as “conducted the transfer assay using fluorescently labeled mannoside (4-methylumbelliferyl-α-D-mannoside; Man-α-MU) as the acceptor”.

Regarding `CC(=O)N[C@H]1[C@@H](OP(=O)(O)OP(=O)(O)OC[C@H]2O[C@@H](n3ccc(=O)[nH]c3=O)[C@H](O)[C@@H]2O)O[C@H](CO)[C@H](O)[C@@H]1O` [UDP-GalNAc], at B3GALNT2dTM, the “glycosyl transfer, MALDI-TOF/MS” value was “incubated this protein with UDPGalNAc and the GlcNAc-β4-Man-O-peptide produced by the GTDC2dTM reaction”.

Turning to `CC(=O)N[C@H]1[C@@H](OP(=O)(O)OP(=O)(O)OC[C@H]2O[C@@H](n3ccc(=O)[nH]c3=O)[C@H](O)[C@@H]2O)O[C@H](CO)[C@@H](O)[C@@H]1O` [UDP-GlcNAc], the “glycosyl transfer, gel filtration and NMR of product” value on GTDC2dTM (donor, acceptor Man-α-MU) is “Reactant of the GTDC2dTM assay using Man-α-MU and UDP-GlcNAc was separated”.
